24 compounds from the Kinase Knowledgebase extract (Sharma et al. 2016) can be followed below.

The target of assay [1] is PIK3CA (human), P42336 [Antiproliferation of PI3K Mutated BT20 Cells]. Briefly: Cell-Based Assay.
The target in another assay is PIK3CA (human) (UniProt P42336). Briefly: Inhibition of PIK3CA Kinase Activity.

Molecules are shown by their SMILES.

PIK3CA (human), sequence (P42336 whole entry, looked up): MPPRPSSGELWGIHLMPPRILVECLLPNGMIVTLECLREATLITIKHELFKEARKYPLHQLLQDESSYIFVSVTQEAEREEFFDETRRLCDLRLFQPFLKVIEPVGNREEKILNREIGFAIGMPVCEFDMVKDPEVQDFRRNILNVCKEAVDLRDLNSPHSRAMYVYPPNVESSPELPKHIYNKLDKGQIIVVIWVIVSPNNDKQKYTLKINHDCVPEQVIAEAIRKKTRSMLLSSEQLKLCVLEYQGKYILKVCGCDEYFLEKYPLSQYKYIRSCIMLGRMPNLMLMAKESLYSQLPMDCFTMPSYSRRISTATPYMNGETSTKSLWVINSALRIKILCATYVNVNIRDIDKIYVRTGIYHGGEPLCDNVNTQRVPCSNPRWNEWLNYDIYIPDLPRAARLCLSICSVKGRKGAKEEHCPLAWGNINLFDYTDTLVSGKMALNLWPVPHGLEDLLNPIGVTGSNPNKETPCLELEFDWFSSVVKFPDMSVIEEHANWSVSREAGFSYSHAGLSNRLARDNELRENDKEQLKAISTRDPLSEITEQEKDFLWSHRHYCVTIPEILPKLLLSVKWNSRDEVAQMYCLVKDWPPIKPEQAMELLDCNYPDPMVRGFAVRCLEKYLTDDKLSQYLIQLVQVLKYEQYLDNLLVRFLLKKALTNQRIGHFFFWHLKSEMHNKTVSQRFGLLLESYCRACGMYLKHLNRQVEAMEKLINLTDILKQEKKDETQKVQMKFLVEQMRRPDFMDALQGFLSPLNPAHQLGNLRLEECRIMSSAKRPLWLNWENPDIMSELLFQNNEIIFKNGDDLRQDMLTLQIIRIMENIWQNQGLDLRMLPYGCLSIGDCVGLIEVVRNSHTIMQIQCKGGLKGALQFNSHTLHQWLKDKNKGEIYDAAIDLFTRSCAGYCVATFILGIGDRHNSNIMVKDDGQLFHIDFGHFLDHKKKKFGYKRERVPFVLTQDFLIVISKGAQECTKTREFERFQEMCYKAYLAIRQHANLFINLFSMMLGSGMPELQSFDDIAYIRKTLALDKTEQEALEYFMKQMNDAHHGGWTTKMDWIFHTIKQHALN
PIK3CA (human), P42336 [Antiproliferation of PI3K Mutated BT20 Cells], sequence (P42336 whole entry, looked up, change not shown): as the sequence (P42336 whole entry, looked up) above

In the case of `CCNc1nc(C)c2cc(-c3cnc4[nH]ccc4c3)c(=O)n(C3CCCC3)c2n1`, the IC50 in assay [1] came to 0.0461 µM; on PIK3CA (human) it was 0.00177 µM.
For `Cc1nc(N)nc2c1cc(-c1cn[nH]c1)c(=O)n2C1CCOC1` (stereo not drawn), the results for the IC50 (in assay [1]; against PIK3CA (human)) were 0.0258 µM and 0.02 µM, respectively.
As to `COc1ccc(-c2cc3c(C)nc(N)nc3n(CC(C)(C)F)c2=O)cn1`, the IC50 in assay [1] stood at 0.437 µM; against PIK3CA (human) it was 0.03 µM.
In the same order, the values of `COc1ncc(-c2cc3c(C)nc(N)nc3n([C@H]3CC[C@H](OCCO)CC3)c2=O)cn1` are 0.0389 µM and 0.0022 µM.
In the same order, the values of `COc1ccc(-c2cc3c(C)nc(N)nc3n([C@@H]3CC[C@H](O)C3)c2=O)cn1` are 0.0829 µM and 0.011 µM.
With `Cc1nc(N)nc2c1cc(-c1cnn(CC(C)(C)O)c1)c(=O)n2C1CCCC1`, the IC50 in assay [1] came to 0.101 µM; against PIK3CA (human) it was 0.089 µM.
In the same order, the values of `Cc1nc(N)nc2c1cc(-c1cn[nH]c1)c(=O)n2C1CCC(=O)CC1` are 0.00466 µM and 0.012 µM.
As to `Cc1nc(N)nc2c1cc(-c1cnn(C)c1)c(=O)n2[C@H]1CC[C@H](OCCO)CC1`, the IC50 in assay [1] came to 0.226 µM; against PIK3CA (human), 0.0223 µM.
As to `CCn1nccc1NC(=O)c1cc2c(C)nc(N)nc2n([C@H]2CC[C@H](O)CC2)c1=O`, the values for the IC50 (in assay [1]; at PIK3CA (human)) were 0.0505 µM and 0.0013 µM, respectively.
The corresponding values for `Cc1nc(N)nc2c1cc(-c1cnc3[nH]ccc3c1)c(=O)n2[C@@H]1CC[C@@H](O)C1` are 0.0558 µM and 0.0012 µM.
With `Cc1nc(N)nc2c1cc(-c1cnc3[nH]ccc3c1)c(=O)n2CC1CCCO1` (stereo not drawn), the 50% inhibitory concentration (IC50) in assay [1] turned out to be 0.0366 µM; against PIK3CA (human), 0.0054 µM.
In the same order, the values of `CCNc1nc(C)c2cc(-c3ccc(O)c(OC)c3)c(=O)n(C3CCCC3)c2n1` are 0.0263 µM and 0.00308 µM.
Turning to `Cc1nc(N)nc2c1cc(-c1cnc3[nH]ccc3c1)c(=O)n2[C@@H]1CC[C@H](O)C1`, the IC50 in assay [1] was found to be 0.0204 µM; against PIK3CA (human) it was 0.0012 µM.
In the same order, the values of `CNc1nc(C)c2cc(C#N)c(=O)n(C3CCCC3)c2n1` are 0.603 µM and 0.06 µM.
For the compound `COc1ccc(-c2cc3c(C)nc(N)nc3n(CC3(F)CCOCC3)c2=O)cn1`, the IC50 was 0.316 µM in assay [1] and 0.018 µM on PIK3CA (human).
Regarding `Cc1nc(N)nc2c1cc(Br)c(=O)n2[C@H]1CC[C@H](OCCO)CC1`, the IC50 in assay [1] was found to be 0.0965 µM; against PIK3CA (human), 0.0552 µM.
As to `Cc1nc(N)nc2c1cc(-c1cn[nH]c1)c(=O)n2[C@H]1CC[C@@H](OCCO)CC1`, the half-inhibitory concentration (IC50) worked out at 0.0091 µM in assay [1] and 0.0297 µM on PIK3CA (human).
Turning to `Cc1nc(N)nc2c1cc(-c1cn[nH]c1)c(=O)n2C1CCOCC1`, the half-inhibitory concentration (IC50) in assay [1] was 0.0199 µM; at PIK3CA (human), 0.0185 µM.
The corresponding values for `Cc1nc(N)nc2c1cc(-c1cnn(CC(F)F)c1)c(=O)n2C1CCCC1` are 0.397 µM and 0.012 µM.
Take `Cc1nc(N)nc2c1cc(-c1ccc(OC(C)C)nc1)c(=O)n2[C@H]1CC[C@H](O)CC1`: the IC50 in assay [1] came out at 0.0718 µM; against PIK3CA (human), 0.0094 µM.
For the compound `Cc1nc(N)nc2c1cc(-c1cn[nH]c1)c(=O)n2[C@H]1CC[C@H](O)CC1`, the half-inhibitory concentration (IC50) in assay [1] turned out to be 0.169 µM; on PIK3CA (human) it was 0.0067 µM.
The corresponding values for `CNc1nc(C)c2cc(-c3ccc(OC)nc3)c(=O)n(CCC3CC3)c2n1` are 0.0414 µM and 0.0089 µM.
The corresponding values for `CCNc1nc(C)c2cc(CCC(=O)O)c(=O)n(C3CCCC3)c2n1` are 10 µM and 0.054 µM.
As to `COc1ncccc1-c1cc2c(C)nc(N)nc2n(C2CCCC2)c1=O`, the figures for the IC50 (in assay [1]; at PIK3CA (human)) were 5.48 µM and 0.856 µM, respectively.

Usually IC50 stands for the point on the concentration scale where inhibition reaches its midpoint. High values mean lower potency, low ones higher potency.
